In patent US5948791A, “Quinoline derivatives for treating malaria” (Hoffmann-La Roche Inc., priority 1995, dated 1999):
Where a name gives a salt, the structure may show the parent alone. Read-outs that look alike come from different tables or passages of the source.

What was measured:
[1] = system: Plasmodium falciparum strain NF54; experiment: Growth inhibition of Plasmodium falciparum NF54 (chloroquine-sensitive) in vitro, [G-3H]-hypoxanthin incorporation; assay type: cell-based; conditions: chloroquine-sensitive strain NF54, 72 h, read-out: IC50 for P. falciparum NF54
Source text: (§1) The ratio of the growth inhibition of a strain which is especially resistant to chloroquine and of a strain which is sensitive to chloroquine gives as the "resistance index" a measurement for the absence of a cross-resistance with chloroquine. Since, for all novel compounds the resistance index lies between 0.7 and 2.5, they inhibit the growth of sensitive as well as resistant strains of the malaria pathogen equally effectively. They are accordingly also suitable for the prophylaxis of a malaria disease and also for the treatment of a malaria disease even when chloroquine is ineffective. The good activity against malaria pathogens is also shown in animal experiments. The effective doses measured after oral and subcutaneous administration to mice infected with malaria pathogens are shown in Table 2 hereinafter.
(§2) Test method for the determination of the activity against Plasmodium falciparum in vitro
(§3) The preparations are tested on intraerythrocytary stages of Plasmodium falciparum from asynchronous cultures according to the method of Desjardin et al. (Desjardins, R. E. et al: Quantitative assessment of antimalarial activity in vitro by a semiautomated microdilution technique. Antimicrob. Agents Chemother. 16, 710-718, (1979)).
(§4) The culture medium consists of RPMI 1640 with the addition of 25 mM HEPES, 25 mM NaHCO3, 100 μg/ml neomycin and […] (A^+). Human-A^+ erythrocytes are used as the Plasmodium falciparum host cells. The parasites are maintained at 37° C. in an atmosphere of 3% O2, 4% CO2, 93% N2 and 95% relative humidity.
(§5) In order to determine the activity, the preparations are dissolved in DMSO, pre-diluted in the culture medium to a suitable starting concentration and subsequently titrated-out on to microtitre plates in the 2nd stage over 6-7 steps. After the addition of the parasite culture (0.7% parasitemia in 2.5% erythrocyte suspension) the test plates are incubated under the conditions given above for 72 h. The parasite growth in the different preparation concentrations is determined using [G-^3 H]-hypoxanthin incorporation compared to untreated control cultures on the same test plates. The 50% growth inhibition (IC50) is calculated according to logit regression analysis from the resulting dosage-activity curve.
(§6) The preparations are tested on at least one chloroquine-resistant and one chloroquine-sensitive Plasmodium falciparum strain. Additional sensitive and resistant strains are included for further characterization.

Plasmodium berghei = experiment: animal or person; assay type: in vivo, Plasmodium berghei (strain ANKA) in mice; conditions: for inhibition in vivo at 10 mg/kg: Plasmodium berghei, mice, blood smears 48 h after treatment
Protocol: Test method for the determination of the activity against Plasmodium berghei in vivo
The preparations are tested on mice infected with malaria pathogens (Plasmodium berghei). Male albino mice (IBM:MORO(SPF), FUELLINSDORF) weighing about 25 g are used as the test animals. They are kept in climatized rooms at 21-22° C. in groups of 5 animals per cage. They receive ad libitum a diet feed with a low PABA content (NAFAG FUTTER " No. 9009 PAB-45, PABA content 45 mg/kg) and drinking water. On the first day of the test (D0) the test animals are infected with Plasmodium berghei (strain ANKA). For this there is used heparinized blood of a donor mouse with about 30% parasitemia, which is diluted with physiological saline such that it contains 10^8 parasitized erythrocytes per ml. 0.2 ml of this suspension is injected intravenously (i.v.) into the mice to be treated and into the control mice.
The substances to be tested are dissolved or suspended in distilled water or in a mixture of 7% Tween 80, 3% alcohol (96%) and water. Usually, 0.25 ml of this solution or suspension is administered once subcutaneously and perorally to groups of 5 test animals. Treatment is effected 24 hours after the infection. 10 control animals are treated in the same manner with solvent or suspension medium per test.
All substances are tested in a first test in a single dosage of 10 mg/kg. Only those substances which in this test (10 mg/kg) have shown a parasitaemia reduction of 90% are used for the titration. Suitable dilutions of the test substance can be used to obtain an accurate titration of the activity.
48 hours after the treatment (D+3) blood smears are prepared from all animals using blood from tail veins and are stained with giemsa. […] The difference in the average values of the infection rates of control group (100%) and treated groups is calculated and expressed as a percentage reduction (GI%). The ED50 or ED90 is determined mathematically by means of the JMP programme (nonlinear fit). The ED50 (ED90) in mg/kg is that dose which after single administration reduces the average erythrocyte infection rate by 50% (90%) in comparison to the control group.

Plasmodium falciparum K1 = experiment: Growth inhibition of Plasmodium falciparum K1 (chloroquine-resistant) in vitro, [G-3H]-hypoxanthin incorporation; assay type: cell-based, Plasmodium falciparum (strain K1); conditions: for IC50: Plasmodium falciparum, K1, 72 h, read-out: IC50 for P. falciparum K1; for Resistance index: ratio of the IC50 for K1 and the IC50 for NF54
Source text: as §1, §2, §3, §4, §5, §6

[2] = po, single peroral dose of 10 mg/kg, read-out: Growth inhibition in % after po administration (GI%, percentage reduction of the parasitemia)
[3] = sc, single subcutaneous dose of 10 mg/kg, read-out: Growth inhibition in % after sc administration (GI%, percentage reduction of the parasitemia)

Structure (SMILES) | IC50 [1] [ng/mL] | inhibition in vivo at 10 mg/kg (Plasmodium berghei; [2]) [%] | Growth inhibition after sc administration: entry "toxic" (Plasmodium berghei; mouse, in vivo, sc, 10 mg/kg) | IC50 (Plasmodium falciparum K1) [µg/mL] | Resistance index (Plasmodium falciparum K1) | inhibition in vivo at 10 mg/kg (Plasmodium berghei; [3]) [%]
Cl.Cl.Fc1cccc(F)c1CN[C@H]1CC[C@@H](Nc2ccnc3cc(Cl)ccc23)CC1 [Example 19, cis-N1-(7-Chloro-quinolin-4-yl)-N4-(2,6-difluoro-benzyl)-cyclohexane-1,4-diamine dihydrochloride] | 4.9 | 21 | toxic | 0.0143 | 2.9 | 
Clc1ccc2c(N[C@H]3CC[C@@H](NCCCc4ccccc4)CC3)ccnc2c1 [Example 20, cis-N1-(7-Chloro-quinolin-4-yl)-N4-(3-phenyl-propyl)-cyclohexane-1,4-diamine dihydrochloride] | 4.4 | 94 |  | 0.0108 | 2.5 | 98
COc1ccc(CN[C@H]2CC[C@@H](Nc3ccnc4cc(Cl)ccc34)CC2)cc1.Cl.Cl [Example 21, cis-N1-(7-Chloro-quinolin-4-yl)-N4-(4-methoxy-benzyl)-cyclohexane-1,4-diamine dihydrochloride] | 5.1 | 99.9 |  | 0.0093 | 1.8 | 100
Cl.Cl.O=[N+]([O-])c1cccc(Cl)c1CN[C@H]1CC[C@@H](Nc2ccnc3cc(Cl)ccc23)CC1 [Example 22, cis-N1-(2-Chloro-6-nitro-benzyl)-N4-(7-chloro-quinolin-4-yl)-cyclohexane-1,4-diamine dihydrochloride] | 11.6 | 42 |  | 0.0189 | 1.6 | 84
CC(C)(CNc1ccnc2cc(Cl)ccc12)NCc1cc(Cl)cc(Cl)c1.Cl.Cl [Example 23, N1-(7-Chloro-quinolin-4-yl)-N2-(3,5-dichloro-benzyl)-2-methylpropane-1,2-diamine dihydrochloride] | 29.6 | 97 |  | 0.0325 | 1.1 | 98
CC(C)(CNc1ccnc2cc(Cl)ccc12)NCc1ccccc1 [Example 24, N1-(7-Chloro-quinolin-4-yl)-N2-(benzyl)-2-methyl-propane-1,2-diamine dihydrochloride] | 7.9 | 81 |  | 0.0132 | 1.7 | 95
CC(C)(CNc1ccnc2cc(Cl)ccc12)NCc1ccc(Cl)cc1 [Example 25, N1-(7-Chloro-quinolin-4-yl)-N2-(4-chloro-benzyl)-2-methyl-propane-1,2-diamine dihydrochloride] | 17.3 | 99.2 |  | 0.0129 | 0.7 | 99.8
CC(C)(CNc1ccnc2cc(Cl)ccc12)NCc1ccc(Cl)c(F)c1.Cl.Cl [Example 27, N1-(7-Chloro-quinolin-4-yl)-N2-(4-chloro-3-fluoro-benzyl)-2-methyl-propane-1,2-diamine dihydrochloride] | 16 | 99 |  | 0.0233 | 1.5 | 98
CC(=O)O.CC(=O)O.CC(C)(CNc1ccnc2cc(Cl)ccc12)NCc1ccccc1O [Example 28, N1-(7-Chloro-quinolin-4-yl)-N2-(2-hydroxybenzyl)-2-methyl-propane-1,2-diamine diacetate] | 4 | 79 |  | 0.0107 | 2.7 | 96
COc1ccc(CNC(C)(C)CNc2ccnc3cc(Cl)ccc23)c(O)c1.Cl.Cl [Example 29, N1-(7-Chloro-quinolin-4-yl)-N2-(2-hydroxy-4-methoxy-benzyl)-2-methyl-propane-1,2-diamine dihydrochloride] | 7.7 | 74 |  | 0.0162 | 2.1 | 99
COc1cccc(CNC(C)(C)CNc2ccnc3cc(Cl)ccc23)c1O.Cl.Cl [Example 30, N1-(7-Chloro-quinolin-4-yl)-N2-(2-hydroxy-3-methoxy-benzyl)-2-methyl-propane-1,2-diamine dihydrochloride] | 6.7 | 70 |  | 0.0114 | 1.7 | 95
COc1ccc(O)c(CNC(C)(C)CNc2ccnc3cc(Cl)ccc23)c1.Cl.Cl [Example 31, N1-(7-Chloro-quinolin-4-yl)-N2-(2-hydroxy-5-methoxy-benzyl)-2-methyl-propane-1,2-diamine dihydrochloride] | 6.5 | 39 |  | 0.0099 | 1.5 | 98
COc1cc(CNC(C)(C)CNc2ccnc3cc(Cl)ccc23)ccc1O.Cl.Cl [Example 33, N1-(7-Chloro-quinolin-4-yl)-N2-(4-hydroxy-3-methoxy-benzyl)-2-methyl-propane-1,2-diamine dihydrochloride] | 6.3 | 10 |  | 0.0071 | 1.1 | 97
COc1cc(CNC(C)(C)CNc2ccnc3cc(Cl)ccc23)cc(OC)c1.Cl.Cl [Example 40, N1-(7-Chloro-quinolin-4-yl)-N2-(3,5-dimethoxy-benzyl)-2-methyl-propane-1,2-diamine dihydrochloride] | 3.6 | 84 |  | 0.0071 | 2.0 | 95
CC(C)(CNc1ccnc2cc(Cl)ccc12)NCc1ccc(Oc2ccccc2)cc1.Cl.Cl [Example 43, N1-(7-Chloro-quinolin-4-yl)-N2-(4-phenoxy-benzyl)-2-methyl-propane-1,2-diamine dihydrochloride] | 16 | 30 |  | 0.0181 | 1.1 | 98
CSc1ccc(CNC(C)(C)CNc2ccnc3cc(Cl)ccc23)cc1.Cl.Cl [Example 44, N1-(7-Chloro-quinolin-4-yl)-N2-(4-methylsulphanyl-benzyl)-2-methyl-propane-1,2-diamine dihydrochloride] | 10.8 | 98 |  | 0.0154 | 1.4 | 99
CN(C)c1ccc(CNC(C)(C)CNc2ccnc3cc(Cl)ccc23)cc1.Cl.Cl [Example 45, N1-(7-Chloro-quinolin-4-yl)-N2-(4-dimethylamino-benzyl)-2-methyl-propane-1,2-diamine dihydrochloride] | 12.3 | 98 |  | 0.0125 | 1.0 | 97
